Test results from patent publication US11911407B2, “Therapies for cardiomyopathy” (UNIVERSITY COLLEGE DUBLIN, NATIONAL UNIVERSITY OF IRELAND, priority 2013, dated 2024).
Entries after “also recorded” stand apart in the source; their conditions may differ.

Columns and labels:
[1] = test system: HCF cells; assay: DMOG treatment of HCF cells in normoxia (Western blot); assay type: cell-based, human; conditions: 1 mM DMOG, 24 hours
Description: Primary human cardiac fibroblast cells from the adult ventricle (HCF) were purchased from ScienCell Research Laboratories. Primary cells were derived from a single person. Until required for experiments, cells were cultured and maintained in Dulbecco's modified eagles medium (DMEM) (Gibco), supplemented with 10% Fetal Bovine Serum (Gibco) and penicillin-streptomycin antibiotics (Gibco) in a 5% CO2 humidified incubator kept at 37° C.
(§1) Where indicated, HCF cells were exposed to a 1% oxygen environment for up to 8 days using a hypoxic chamber (Coy Laboratories). The effects of 10 ng/ml recombinant TGFβ1 treatment (R&D Systems) under these conditions were investigated. When required, cells were treated for 24 hours with 1 mM of the prolyl hydroxylase inhibitor DMOG (Sigma) to simulate hypoxia through the induction of HIF under normoxic conditions.
Whole cell protein lysates were generated using RIPA Lysis Buffer (Millipore), containing a protease inhibitor cocktail (Roche). Nuclear protein extracts were obtained using the Ne-PeR Nuclear and Cytoplasmic extraction Reagents, according to manufacturer's instructions (Pierce Biotechnology). Protein concentrations were determined using the BCA Protein Assay Kit (Pierce). […]

[2] = test system: cardiac myoblast cells; assay: Cardiac myoblast gene expression of MYBP-C and ACTA1 in vitro by real-time PCR; assay type: cell-based; conditions: 4 day treatment
Description: Confirmation of the impact of DNA methylation inhibitors can up-regulate the expression levels of MYBP-C and ACTA1 was assessed in vitro using cardiac myoblast cells. Cells were grown in culture for 4 days either in the presence or absence of 5-azacytidine (5AZA) or 5-aza-2-deoxycytidine (5AZA_DC). Gene expression was quantified using real-time PCR.

[3] = test system: HCF cells; assay: DNA demethylation with 5-aza-2′-deoxycytidine in hypoxic HCF cells, pro-fibrotic protein expression; assay type: cell-based, human; conditions: for expression of ASMA / expression of collagen 1 / expression of collagen 3: hypoxic fibroblasts with TGFβ; for expression of ASMA / expression of collagen 1 / expression of collagen 3 / pro-fibrotic effects of / responses to TGFβ: 1-5 μM; for pro-fibrotic effects of / responses to TGFβ: hypoxic fibroblasts, up to eight days
Description: Where indicated, HCF cells were exposed to a 1% oxygen environment for up to 8 days using a hypoxic chamber (Coy Laboratories). The effects of 10 ng/ml recombinant TGFβ1 treatment (R&D Systems) under these conditions were investigated. When required, cells were treated for 24 hours with 1 mM of the prolyl hydroxylase inhibitor DMOG (Sigma) to simulate hypoxia through the induction of HIF under normoxic conditions. Whole cell protein lysates were generated using RIPA Lysis Buffer (Millipore), containing a protease inhibitor cocktail (Roche). Nuclear protein extracts were obtained using the Ne-PeR Nuclear and Cytoplasmic extraction Reagents, according to manufacturer's instructions (Pierce Biotechnology). Protein concentrations were determined using the BCA Protein Assay Kit (Pierce). 10-20 μg of protein lysates were denatured, reduced and resolved on SDS-polyacrylamide gels by SDS-PAGE before transfer onto 0.45 μm pore size Immobilon-P polyvinylidene fluoride (PVDF) membranes (Millipore). Membranes were incubated with blocking buffer (TBS, 0.25% Tween-20, 0.1% serum from species that secondary antibody was raised in, and 5% fat free skimmed milk) for 1 hour at room temperature. Membranes were subsequently probed overnight with either anti-ASMA (Sigma), anti-collagen 1, anti-DNMT3B (Imgenex), or anti-hypoxia inducible factor 1α (HIF-1α) (Novus Biologicals). Detection of the specific binding of the primary antibody was achieved using HRP-conjugated secondary antibodies, followed by signal detection with Immobilon Western chemiluminescent HRP substrate (Millipore) according to the manufacturer's instructions. Anti-alpha tubulin (Sigma) was used to verify equal loading. For demethylation analysis, cells were treated with 1-5 μM 5-aza-2′-deoxycytidine (5-azadc; Sigma) for up to eight days. The effect of global DNA methylation inhibition on pro-fibrotic protein expression was assessed using Western blotting.

[4] = test system: HCF cells; assay: TGFβ1 treatment of HCF cells, quantitative real-time PCR; assay type: cell-based, human
Description: as §1
Gene expression changes were measured in HCF cells using QPCR as described in human cardiac tissue analysis methods section. RNA isolation from cells was achieved using NucleoSpin RNA II Kit (Macherey-Nagel). QPCR data was analysed using the delta delta CT method.

[5] = test system: spontaneously hypertensive rats (SHR); assay: Hydroxyproline assay of total collagen in myocardium; assay type: in vivo, rat; conditions: SHR-5AZA vs SHR-V, 12 weeks
Description: (§2) Approval from the local Animal Research Ethics Committee was sought and obtained to investigate the anti-fibrotic impact of 5-aza on cardiac function and fibrosis. Male spontaneously hypertensive rats (SHR) and their normotensive counterpart Wistar Kyote rats (WKY) were purchased from Charles River and utilised for the study. From 10 weeks of age, the animals received alternate day intra-peritoneal injection of either PBS (vehicle) or 5-aza (10 mg/kg) for 12 weeks. The 5-aza was purchased from Sigma, diluted in sterile PBS and filtered through a 0.22 μm filter. Aliquots were stored at −20° C. and were used within 5 days of reconstitution. The study design consisted of three groups of 10 animals; group 1 included 10 SHR rats who received 5-aza (SH R-5-aza); group 2 included 10 SHR rats who received PBS vehicle (SHR-V); group 3 included 10 WKY rats who received PBS vehicle (WKY-V). All rats were housed in the animal facility under identical conditions, with a 12 hour light-dark cycle.

[6] = test system: spontaneously hypertensive rats (SHR); assay: Picrosirius red staining with automated digital quantification of perivascular collagen; assay type: in vivo, rat; conditions: SHR-5AZA vs SHR-V, 12 weeks
Description: as §2, with “cycle. […]” for “cycle.”
The degree of collagen deposition was quantified by automated digital image analysis. […] A positive pixel count algorithm was used to automatically quantify the area occupied by the dark pink stain colours representing collagen within each scanned slide image. […] A collagen volume fraction was calculated based on the percent of dark pink collagen staining quantified within a tissue section.

[7] = test system: spontaneously hypertensive rats (SHR); assay: Cardiac tissue gene expression of MYBP-C and ACTA1 by quantitative real-time PCR; assay type: in vivo, rat
Description: FIGS. 17 and 18 depict the effect of 5AZA treatment on cardiac expression levels of MYBP-C and ACTA1. Gene expression levels of MYBP-C and ACTA1 were assessed using quantitative real-time PCR in the cardiac tissue of SHR-V and SHR-AZA. […] Results represent mean and standard error of the mean. * p<0.05, *** p<0.001.
as §2

[8] = test system: spontaneously hypertensive rats (SHR); assay: Myocyte area digital analysis of haematoxylin and eosin stained cardiac tissue; assay type: in vivo, rat; conditions: SHR-5AZA vs SHR-V
Description: FIG. 16 depicts the effect of 5AZA treatment on myocyte area in vivo. […] Male spontaneously hypertensive rats (SHR) and their normotensive counterpart Wistar Kyote rats (WKY) were purchased from Charles River and utilised for the study. From 10 weeks of age, the animals received alternate day intra-peritoneal injection of either PBS (vehicle) or 5-aza (10 mg/kg) for 12 weeks. The 5-aza was purchased from Sigma, diluted in sterile PBS and filtered through a 0.22 μm filter. Aliquots were stored at −20° C. and were used within 5 days of reconstitution. The study design consisted of three groups of 10 animals; group 1 included 10 SHR rats who received 5-aza (SH R-5-aza); group 2 included 10 SHR rats who received PBS vehicle (SHR-V); group 3 included 10 WKY rats who received PBS vehicle (WKY-V). All rats were housed in the animal facility under identical conditions, with a 12 hour light-dark cycle.

[9] = test system: spontaneously hypertensive rats (SHR); assay: Doppler echocardiography in rat model of hypertensive heart disease; assay type: in vivo; conditions: SHR-5AZA vs SHR-V, 10 mg/kg i.p. alternate day, 12 weeks
Description: Approval from the local Animal Research Ethics Committee was sought and obtained to investigate the anti-fibrotic impact of 5-aza on cardiac function and fibrosis. Male spontaneously hypertensive rats (SHR) and their normotensive counterpart Wistar Kyote rats (WKY) were purchased from Charles River and utilised for the study. From 10 weeks of age, the animals received alternate day intra-peritoneal injection of either PBS (vehicle) or 5-aza (10 mg/kg) for 12 weeks. The 5-aza was purchased from Sigma, diluted in sterile PBS and filtered through a 0.22 μm filter. Aliquots were stored at −20° C. and were used within 5 days of reconstitution. The study design consisted of three groups of 10 animals; group 1 included 10 SHR rats who received 5-aza (SH R-5-aza); group 2 included 10 SHR rats who received PBS vehicle (SHR-V); group 3 included 10 WKY rats who received PBS vehicle (WKY-V). All rats were housed in the animal facility under identical conditions, with a 12 hour light-dark cycle. Cardiac structure and function was assessed at baseline and at the end of the study (12 weeks) using Echocardiography. During the procedure, the animals were under inhaled anaesthesia (isoflurane 2%) and body temperature was maintained using a heat mat. Echocardiography assessment was performed using a Vevo 770 High-Resolution In Vivo Micro-Imaging System (Visualsonics) with a […] transducer. M-mode and 2-dimensional (2D) images were obtained in the parasternal long- and short-axis views. The interventricular septal thickness, posterior wall thickness, and LV diameter were measured in systole and diastole at the tips of the papillary muscle. Measurements were taken over three consecutive cardiac cycles and averaged. Left ventricular mass (LVM) was calculated according to Devereux's formula and indexed to tibial length (LVMi). Blinded analysis was performed by two separate independent observers.

[10] = 10 ng/ml TGFβ1, 8 days hypoxia (1% oxygen)

**Q.** With COC(=O)CNC(=O)C(=O)OC [DMOG] as the compound, how does the “expression of DNMT3B” value [1] read?
**A.** increased expression

**Q.** And the “nuclear HIF-1α protein expression” value [1]?
**A.** stabilises

**Q.** Nc1ncn([C@H]2C[C@H](O)[C@@H](CO)O2)c(=O)n1 [5AZA_DC, 5-aza-2′-deoxycytidine] was tested. Which “ACTA1 gene expression in cardiac myoblast cells” value [2] did it give?
**A.** significant increase

**Q.** What about the “MYBP-C gene expression in cardiac myoblast cells” value [2] of the same compound?
**A.** significant increase

**Q.** What about the “expression of ASMA” value [3] of the same compound?
**A.** reduced expression

**Q.** And the “expression of collagen 1” value [3]?
**A.** reduced expression

**Q.** What about the “expression of collagen 3” value [3] of the same compound?
**A.** reduced expression

**Q.** What about the “expression of ASMA” value ([3]; listed as 5-aza2dC) of the same compound?
**A.** significantly reduced

**Q.** And the “expression of collagen 1” value ([3]; listed as 5-aza2dC)?
**A.** significantly reduced

**Q.** And the “expression of collagen 3” value ([3]; listed as 5-aza2dC)?
**A.** significantly reduced

**Q.** And the “pro-fibrotic effects of / responses to TGFβ” value [3]?
**A.** significantly reduced

**Q.** What about the “pro-fibrotic effects of / responses to TGFβ” value ([3]; listed as 5-aza2dC) of the same compound?
**A.** inhibited

**Q.** How did the ASMA gene expression ([4]; 10 ng/ml TGFβ1) turn out when “TGFβ1: human recombinant transforming growth factor beta 1, pro-fibrotic cytokine” was run?
**A.** significantly increased

**Q.** What about the “collagen 1 gene expression” value ([4]; 10 ng/ml TGFβ1) of the same compound?
**A.** significantly increased

**Q.** And the ASMA gene expression [4, 10]?
**A.** further enhanced

**Q.** What about the “collagen 1 gene expression” value [4, 10] of the same compound?
**A.** further enhanced

**Q.** For Nc1ncn([C@@H]2O[C@H](CO)[C@@H](O)[C@H]2O)c(=O)n1 [5AZA, 5-azacytidine], which “ACTA1 gene expression in cardiac myoblast cells” value [2] is on record?
**A.** significant increase

**Q.** What about the “MYBP-C gene expression in cardiac myoblast cells” value [2] of the same compound?
**A.** significant increase

**Q.** What about the “total collagen / collagen deposition within the myocardium (hydroxyproline)” value [5] of the same compound?
**A.** significant reduction

**Q.** And the perivascular collagen [6]?
**A.** significantly reduced; also recorded: significant decrease

**Q.** And the “ACTA1 expression in cardiac tissue” value ([7]; SHR animals treated with 5AZA)?
**A.** significant increase

**Q.** And the “MYBP-C expression within the myocardium” value ([7]; SHR animals treated with 5AZA)?
**A.** significant increase

**Q.** And the “increase in ACTA1 gene expression in cardiac tissue” value ([7]; SHR-AZA vs SHR-V)?
**A.** 4 fold

**Q.** And the “increase in MYBP-C gene expression in cardiac tissue” value ([7]; SHR-AZA vs SHR-V)?
**A.** 4 fold

**Q.** And the “pro-fibrotic impact of hypoxia” value ([3]; FIGS. 7A-7C)?
**A.** reverses

**Q.** And the myocyte area [8]?
**A.** significantly smaller; also recorded: significant decrease

**Q.** And the cardiac hypertrophy [9]?
**A.** significant reduction

**Q.** What about the “E prime (E′), diastolic dysfunction” value ([9]; 10 mg/kg) of the same compound?
**A.** significantly approved; also recorded: significantly improved

**Q.** What about the “Ejection fraction (EF)” value ([9]; 10 mg/kg) of the same compound?
**A.** significantly increased; also recorded: significantly improved

**Q.** What about the “interventricular septum diameter (in diastole)” value ([9]; 10 mg/kg) of the same compound?
**A.** significant reduction; also recorded: reduced

**Q.** What about the “left ventricular mass index (LVMi)” value ([9]; 10 mg/kg) of the same compound?
**A.** significant reduction; also recorded: reduced
